The target in the assay is T1, recombinant rat mGluR5 (Rattus norvegicus, UniProt P31424).
T1 construct: expressed in transfected cells
As to the kind of experiment: Functional calcium flux assay (FLIPR), antagonist evaluation against glutamate-evoked [Ca2+]i increase. Format: cell-based. The following applies: Table 2; HEK293 cells stably expressing recombinant rat mGluR5; 15 min incubation of test compound, then submaximal glutamate; read-out: IC50 (FLIPR assay). Summed up:
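HEK293 cells stably expressing rat mGluR5 were loaded with Fluo-8, preincubated 15 min with compound, then stimulated with submaximal glutamate; [Ca2+]i read by FLIPR. Inhibition relative to glutamate alone was fitted to a 4-parameter logistic to derive IC50.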

Structures are written as SMILES.

T1 sequence (P31424 21-1203): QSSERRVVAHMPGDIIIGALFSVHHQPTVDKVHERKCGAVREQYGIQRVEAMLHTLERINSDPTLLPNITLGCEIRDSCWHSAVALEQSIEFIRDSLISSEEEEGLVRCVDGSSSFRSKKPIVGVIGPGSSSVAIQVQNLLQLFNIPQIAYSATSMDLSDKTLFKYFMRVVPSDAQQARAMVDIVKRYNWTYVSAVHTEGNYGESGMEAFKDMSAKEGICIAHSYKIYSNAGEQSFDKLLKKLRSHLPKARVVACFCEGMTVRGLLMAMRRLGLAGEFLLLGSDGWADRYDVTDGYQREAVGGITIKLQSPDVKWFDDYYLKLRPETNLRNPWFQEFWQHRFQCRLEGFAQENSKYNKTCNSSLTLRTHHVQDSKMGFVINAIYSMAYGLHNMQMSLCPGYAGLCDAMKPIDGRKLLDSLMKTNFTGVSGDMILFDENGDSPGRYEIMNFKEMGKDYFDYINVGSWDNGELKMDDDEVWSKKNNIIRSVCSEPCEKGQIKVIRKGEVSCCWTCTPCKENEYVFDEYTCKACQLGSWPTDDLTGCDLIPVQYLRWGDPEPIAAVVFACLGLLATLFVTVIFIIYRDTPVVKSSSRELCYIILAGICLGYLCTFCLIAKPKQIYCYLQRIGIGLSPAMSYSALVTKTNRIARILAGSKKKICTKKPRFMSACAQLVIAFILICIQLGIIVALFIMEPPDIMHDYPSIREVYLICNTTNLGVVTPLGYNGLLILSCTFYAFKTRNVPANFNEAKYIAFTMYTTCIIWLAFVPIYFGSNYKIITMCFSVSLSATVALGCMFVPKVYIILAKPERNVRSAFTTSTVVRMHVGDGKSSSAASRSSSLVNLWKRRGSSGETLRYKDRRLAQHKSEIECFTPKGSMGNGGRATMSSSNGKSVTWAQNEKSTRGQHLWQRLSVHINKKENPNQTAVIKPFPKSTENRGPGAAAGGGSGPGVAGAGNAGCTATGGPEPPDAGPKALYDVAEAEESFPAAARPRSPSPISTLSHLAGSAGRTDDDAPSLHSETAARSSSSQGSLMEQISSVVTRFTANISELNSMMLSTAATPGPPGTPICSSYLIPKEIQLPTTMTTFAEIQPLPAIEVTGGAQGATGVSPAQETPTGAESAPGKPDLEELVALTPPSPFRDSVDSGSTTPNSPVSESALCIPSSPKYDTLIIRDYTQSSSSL

With `Cc1cc(C#Cc2ccncc2)nn1-c1ccc(F)cc1` [Compound 130, 4-((1-(4-fluorophenyl)-5-methyl-1H-pyrazol-3-yl)ethynyl) pyridine], the IC50 was ≤ 500 nM.

`Cc1cc(C#Cc2ccnc(Cl)c2)nn1-c1ccc(F)cc1` [Compound 131, 2-chloro-4-((1-(4-fluorophenyl)-5-methyl-1H-pyrazol-3-yl)ethynyl) pyridine]: the half-inhibitory concentration (IC50) was ≤ 500 nM.

With `Cc1cc(C#Cc2cccnc2)nn1-c1ccc(OC(F)(F)F)cc1` [Compound 132, 3-((5-methyl-1-(4-(trifluoromethoxy)phenyl)-1H-pyrazol-3-yl)ethynyl)pyridine], the IC50 was in the range of 1000 to 5000 nM.

On to `Cc1cc(C#Cc2ncccn2)nn1-c1ccc(OC(F)(F)F)cc1` [Compound 133, 2-((5-methyl-1-(4-(trifluoromethoxy)phenyl)-1H-pyrazol-3-yl)ethynyl)pyrimidine], for which the IC50 lay within 1000 to 5000 nM.

`Cc1cc(C#Cc2cnccn2)nn1-c1ccc(OC(F)(F)F)cc1` [Compound 134, 2-((5-methyl-1-(4-(trifluoromethoxy)phenyl)-H-pyrazol-3-yl)ethynyl)pyrazine]: the IC50 lay in the range of 1000 to 5000 nM.

As to `Cc1cc(C#Cc2ccnc(Cl)c2)nn1-c1ccc(OC(F)(F)F)cc1` [Compound 135, 2-chloro-4-((5-methyl-1-(4-(trifluoromethoxy)phenyl)-1H-pyrazol-3-yl)ethynyl)pyridine], the IC50 is 1000 to 5000 nM.

As for `Cc1cc(C#Cc2ccccn2)nn1-c1ccc(OC(F)(F)F)cc1` [Compound 136, 2-((5-methyl-1-(4-(trifluoromethoxy)phenyl)-1H-pyrazol-3-yl)ethynyl)pyridine], the IC50 was ≤ 500 nM.

For the origin of these results see patent US10941132B2, “Pyrazole derivatives” (HUA MEDICINE (SHANGHAI) Ltd., priority 2016, dated 2021).
